Assay results from publication PMC7170889, “Synthesis and evaluation of designed PKC modulators for enhanced cancer immunotherapy” (Nature Communications, 2020).

What was measured:
PKCδ-GFP fusion protein = molecular target: T1, PKCδ-GFP fusion protein (Homo sapiens, UniProt Q05655); test: PKCδ-GFP translocation assay in living CHO-k1 cells (confocal microscopy); assay type: cell-based, Chinese hamster; settings: for Emax at 1 µM: CHO-K1, 1000 nM compound; for minimum effective concentration required to induce translocation of PKC-GFP to the membrane: tested at 200 and 1000 nM
T1 construct: expressed in transfected cells; host or cells: CHO-k1 (Chinese hamster ovary, ATCC)
Protocol: (§1) With a panel of compounds bearing diverse functionality at C13, we began to explore how these modifications affect PKC binding and biological function. Because an obvious prerequisite for PKC pathway involvement is binding to PKC, compounds were initially evaluated for PKC affinity in a cell-free competitive binding assay with tritiated phorbol dibutyrate ([^3H]-PDBu). Assays were performed with representative members of both the conventional (PKCα) and novel (PKCδ) PKC families. Subsequently, compounds were assayed for PKC isoform translocation in real time in living cells using an optical assay. Translocation to the plasma membrane is the hallmark of PKC activation[18],[57],[60] and therefore monitoring the subcellular localization of a PKCδ-GFP fusion protein via confocal microscopy offers a convenient method for determining whether a compound enters a cell and engages its PKC isoform target. Finally and of clinical significance, we also determined the effect of compounds on CD22 surface expression in vitro in NALM6 cells, an ALL cell line previously studied in connection with CD22-targeted CAR T cell therapy, and two additional lymphoma cell lines[11],[31],[65].
Scale bar represents 25 μm. Experiments performed in n = 3 biological replicates. b–d Cytosolic fluorescence normalized to t = 0 (time immediately prior to addition of compound to media) and plotted against time. Error bars excluded for clarity (data presented as the mean of n = 3 biological replicates). Individual curves with error bars included in Supplementary Information.
PKCδ-GFP Translocation Assay Protocol
Chinese hamster ovary factor K1 (CHO-k1, ATCC) cells were cultured in F-12 Kaighn’s media (Hyclone, 10% fetal bovine serum, 1% penicillin/streptomycin added, reffered to as F-12 +/+ below) at 37 ° C in an incubator (5% CO2). Cell cultures were maintained by splitting cells 1:3 when they reached ~75-100% confluence (every 2-3 days) as follows:
(Gibco) was used to remove the cells from the culture flask (T75, Falcon). 1 mL of the cell suspension was then added to 9 mL of fresh F-12 +/+ and the sample was sub-cultured until reaching confluence (~2-3 days).
Cells were counted using a Countess II Automated Cell Counter (Fisher). The cell suspension was diluted to 240,000 cells/mL with fresh F-12 +/+ and 2.5 mL of this diluted stock was added to one well in a 6-well plate. The cells were then cultured for 24 hours.
Cells were transfected with Lipofectamine 2000 reagent (Invitrogen) or DA 13:11 at a 10:1 charge […]
F-12 +/+ was aspirated and cells were washed with F-12 -/-. 2 mL of fresh F-12 -/- was then added to each well, taking care not to disturb adherent cells. For each well of CHO-k1 cells, 12.5 µL Lipofectamine 2000 reagent (Invitrogen) was added to 250 µL Opti-MEM reduced serum media (Invitrogen) in a polypropylene tube and incubated for 20 minutes at RT. Meanwhile, for each well, 4 µg of PKCδ-GFP pDNA and 250 µL Opti-MEM reduced serum media was added to a separate polypropylene tube. 250 µL of the Lipofectamine 2000 suspension was added to the DNA suspension and the solution incubated for 30 minutes at RT. 500 µL of the Lipofectamine/DNA suspension was added to the respective wells of the 6-well plate. The cells were then incubated at 37 ° C (5% CO2) for ~24 hrs.
F-12 +/+ was aspirated and cells were washed with F-12 -/-. 2.4 mL of fresh F-12 -/- was then added to each well, taking care not to disturb adherent cells. A 4 µg aliquot of PKCδ-GFP pDNA was added to PBS (pH 5.5, final volume 100 µL). 5.6 µL of DA 13:11 (2 mM stock in DMSO) was then added to the DNA solution, and the mixture was gently mixed (by flicking) for 20 seconds, at which point it was added directly to the respective wells of the 6-well plate.

PKC = PKC competitive binding assay, isoform not specified; parameters: species or system human
Protocol: as §1
PKC Binding Assay Protocol […]
competition with 3H-phorbol-12,13-dibutyrate (3H-PDBu) as described below. This procedure entails a glass-fiber filtration method to determine bound radioligand.
Preparation of PKC binding assay buffer
To a 50 mL polypropylene tube was added Tris-HCl (pH 7.4, 1 M, 1 mL), KCl (1 M, 2 mL), CaCl2 (0.1 M, 30 μL), and bovine serum albumin (BSA, 40 mg, Sigma-Aldrich). This mixture was diluted to 20 mL with deionized H2O and mixed gently. The buffer was stored on ice until use. The final […]
Supplementary Table1. PKC binding assay buffer composition.
Preparation of phosphatidylserine (PS) vesicles
For every two assays, 3.5 mg phosphatidylserine (Avanti Polar Lipids, porcine, 25 mg/mL CHCl3 solution) was concentrated by removing chloroform under a stream of nitrogen followed by reduced pressure. The solid PS was suspended as vesicles in freshly prepared PKC binding assay buffer (3.5 mL) by sonicating six times for 30 sec, with a 30 sec rest between sonications (Branson Sonifier 250, power = 2, 50% duty cycle). The resulting milky cloudy mixture (1 mg/mL) was stored […]
Preparation of PKC isoform solution
Assay PKC was prepared by dissolving a 4 μg aliquot of the indicated recombinant human PKC isoform (Invitrogen) into 11.6 mL of PKC binding assay buffer (this amount is sufficient for two assays). The diluted PKC was stored on ice for immediate use.
Preparation of 3H-PDBu solution
3H-PDBu (American Radiolabeled Chemicals, Inc.; 1 mCi/mL acetone solution; specific activity: […]) was diluted 10-fold with DMSO. The resulting 500 nM stock solution was further diluted with DMSO to 30 nM.
Preparation of analog compound dilutions
Compound dilutions were prepared by serially diluting from a chosen "high" concentration by factors of 3 or 4. For each analog compound, seven concentrations were used to define the […]
To a polypropylene tube was added 3.3 mL of 1 mg/mL PS vesicles solution, 11 mL of PKC isoform solution, and 1.1 mL of 30 nM 3H-PDBu solution were added. The resulting solution was vortexed to mix and stored on ice.
PKC binding assay protocol
- Glass-fiber filters (Whatman GF/B) were prepared by soaking them in a solution of […]

[1] = CHO-k1 cells, n = 3, read-out: % Translocation (maximum translocation of PKCδ-GFP to the plasma membrane)

T1 sequence (Q05655 whole entry, the tested form may be a part): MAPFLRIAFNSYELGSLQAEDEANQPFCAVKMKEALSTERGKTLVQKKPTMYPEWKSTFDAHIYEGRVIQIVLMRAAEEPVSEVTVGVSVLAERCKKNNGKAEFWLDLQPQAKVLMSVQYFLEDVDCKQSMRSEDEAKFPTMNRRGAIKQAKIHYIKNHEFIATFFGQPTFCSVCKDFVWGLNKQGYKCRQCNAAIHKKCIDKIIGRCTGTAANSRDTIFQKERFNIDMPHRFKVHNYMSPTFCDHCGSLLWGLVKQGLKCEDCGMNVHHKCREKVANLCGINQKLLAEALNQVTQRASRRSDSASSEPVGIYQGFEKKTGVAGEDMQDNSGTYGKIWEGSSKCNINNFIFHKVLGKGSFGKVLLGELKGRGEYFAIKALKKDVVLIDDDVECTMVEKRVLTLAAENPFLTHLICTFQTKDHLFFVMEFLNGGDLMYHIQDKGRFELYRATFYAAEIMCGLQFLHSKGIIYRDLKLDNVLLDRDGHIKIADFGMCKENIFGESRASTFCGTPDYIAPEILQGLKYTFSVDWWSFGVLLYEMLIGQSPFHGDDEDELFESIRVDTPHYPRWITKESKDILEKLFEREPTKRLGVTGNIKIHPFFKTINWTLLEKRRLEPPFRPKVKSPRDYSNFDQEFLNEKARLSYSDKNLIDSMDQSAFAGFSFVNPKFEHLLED

| Structure (SMILES) | % Translocation (maximum translocation of PKCδ-GFP to the plasma membrane) (PKCδ-GFP fusion protein; 1000 nM compound, CHO-k1 cells, n = 3) [%] | Emax at 1 µM (PKCδ-GFP fusion protein; [1]) [%] | minimum effective concentration required to induce translocation of PKC-GFP to the membrane (PKCδ-GFP fusion protein; CHO-k1 cells) [nM] | PKC binding affinity in words (PKC; conventional and novel PKC isoforms) | Emax at 0.2 µM (PKCδ-GFP fusion protein; CHO-K1, 200 nM compound, CHO-k1 cells, n = 3, read-out: % Translocation (maximum translocation of PKCδ-GFP to the plasma membrane)) [%] | sustained translocation of PKC (PKCδ-GFP fusion protein; at up to 1000 nM) | decrease in affinity to PKC (PKC; charged substituents at C13, Table 1 data) |
| --- | --- | --- | --- | --- | --- | --- | --- |
| CCCCCC#CC(=O)O[C@H]1/C(=C/C(=O)OC)C[C@H]2C[C@H]([C@@H](C)O)OC(=O)C[C@H](O)C[C@@H]3C[C@H](OC(C)=O)C(C)(C)[C@](O)(C[C@@H]4C[C@@](O)(CO)C[C@H](/C=C/C(C)(C)[C@]1(O)O2)O4)O3 [SUW203] | 50 | ~50 | 1000 | single-digit nanomolar |  |  |  |
| CCC/C=C/C=C/C(=O)O[C@H]1/C(=C/C(=O)OC)C[C@H]2C[C@H]([C@@H](C)O)OC(=O)C[C@H](O)C[C@@H]3C[C@H](OC(C)=O)C(C)(C)[C@](O)(C[C@@H]4C[C@H](OC(C)=O)C[C@H](/C=C/C(C)(C)[C@]1(O)O2)O4)O3 [SUW206] |  |  | 200 |  | 60 |  |  |
| CCCC=CC=CC(=O)OC1C(=CC(=O)OC)CC2CC(C(C)O)OC(=O)CC(O)CC3CC(OC(C)=O)C(C)(C)C(O)(CC4CC(OC(=O)CCC(=O)O)CC(C=CC(C)(C)C1(O)O2)O4)O3 (stereo not shown) [SUW211] |  | 20 | 1000 |  |  | did not achieve sustained translocation of PKC | 20-100 fold |
